Measurements: PMC11357397, “Design, Synthesis, and Evaluation of Oleyl-WRH Peptides for siRNA Delivery” (Pharmaceuticals, 2024)

Columns and labels:
Test in all cases: In vitro cytotoxicity of peptide/siRNA complexes (MTS)
Settings in all cases: 35% v/v DMSO
[1] = test system: MCF-7 cells; assay type: cell-based
Experimental: (§1) This study aimed to assess these complexes’ potential as a delivery system for siRNA-mediated gene silencing in cancer cells. Our initial experiments involved the use of the MDA-MB-231 (Figure 6A), MCF-7 (Figure 6B), SK-OV-3 (Figure 7A), and HEK-293 (Figure 7B) cell lines for cell culture and in vitro cytotoxicity studies. After 72 h of incubation, we used an MTS test to determine the cytotoxicity of the developed peptides complexed with scrambled siRNA. The peptide/siRNA complexes were applied to the cells at various concentrations and N/P ratios (from 10 to 100). […] This finding corroborates the results from our previous reports.
(§2) The cell lines selected for this study included MDA-MB-231 (ATCC No. HTB-26, triple-negative breast cancer cell line), MCF-7 (ATCC No. HTB-22, breast adenocarcinoma cells), HEK-293 (ATCC No. CRL-1573, normal kidney cells), and SK-OV-3 (ATCC No. HTB-77, human epithelial ovary adenocarcinoma cells). […]
(§3) The cytotoxicity of the synthesized oleyl-conjugated peptides complexed with scrambled siRNA was evaluated in vitro using the aforementioned cell lines. […]
(§4) For the assay, 10,000 cells per 0.1 mL were seeded into each well of a 96-well plate using a multichannel pipette and allowed to adhere for 24 h in a standard cell culture incubator. Cell health and confluency were assessed after the initial 24 h period. […]

[2] = test system: MDA-MB-231 cells; assay type: cell-based
Experimental: as §1, §2, §3, §4

[3] = test system: SK-OV-3 cells; assay type: cell-based, human
Experimental: as §1, §2, §3, §4

[4] = test system: HEK-293 cells; assay type: cell-based
Experimental: as §1
The cell lines selected for this study included MDA-MB-231 (ATCC No. HTB-26, triple-negative breast cancer cell line), MCF-7 (ATCC No. HTB-22, breast adenocarcinoma cells), HEK-293 (ATCC No. CRL-1573, normal kidney cells), and SK-OV-3 (ATCC No. HTB-77, human epithelial ovary adenocarcinoma cells).
as §3, §4

Measured: cells to which the positive control was cytotoxic

C[S+](C)[O-] [DMSO]
over 70%: [1] | [2] | [3] | [4]
